Usually IC50 stands for the concentration that inhibits the measured activity by half. A lower IC50 goes with greater potency in that assay.

Results on 1 molecule are retold here after patent US8916564B2, “Substituted pyrido[1,2-a]pyrazines for the treatment of neurodegenerative and neurological disorders” (priority 2012, dated 2014).

In this assay the target is γ-secretase (Cricetulus griseus, UniProt G3HNF2). In words: Cell-Based γ-Secretase Assay with ELISA Readout (production of amyloid beta protein Aβ(1-42)). Conditions: human WT-APP overexpressing CHO cells; Aβ(1-42) ELISA; geometric mean of 2-4 determinations (b: single determination; c: geometric mean of ≧5 determinations).

SMILES strings stand for the structures.

Procedure: The ability of compounds to modulate production of amyloid beta protein Aβ(1-42) was determined using human WT-APP overexpressing CHO cells. Cells were plated at 22,000 cells/100 μL well in 96 well tissue culture treated, clear plates (Falcon) in DMEM/F12 based medium and incubated for 24 hours at 37° C. […] Compounds were added in fresh medium to achieve 1% final DMSO. Appropriate vehicle or inhibitor controls were added into control wells individually to obtain minimum or maximum inhibition values, respectively, for the assay signal window before the plates were incubated for ˜24 hours at 37° C. This procedure produces conditioned media in each well which is tested for Aβ(1-42) levels in the ELISA detection step described next. The remaining cell cultures in each well are also tested for cell toxicity as described below.
Coating of ELISA assay plates was initiated by addition of 50 μL/well of an in-house Aβ(1-42) specific antibody at (3 μg/mL) in 0.1 M NaHCO3 (pH 9.0) into black 384-well Maxisorp® plates (Nunc) and incubated overnight at 4° C. […] Cell toxicity was also measured in the corresponding remaining cells after removal of the conditioned media for the Aβ(1-42) assay by a colorimetric cell proliferation assay (CellTiter 96®AQueous One Solution Cell Proliferation Assay, Promega) according to the manufacturer's instructions. […]

Turning to `Cc1cn(-c2ccc3n(c2=O)CCN(CC2CC(c4ccc(Cl)c(C(F)(F)F)c4)=NO2)C3=O)cn1` (stereo not shown) [Example 32, 2-({3-[-chloro-3-(trifluoromethyl)phenyl]-4,5-dihydro-1,2-oxazol-5-yl}methyl)-7-(4-methyl-1H-imidazol-1-yl)-3,4-dihydro-2H-pyrido[1,2-a]pyrazine-1,6-dione], the 50% inhibitory concentration (IC50) was 429 nM.
